The source of these data is ChEMBL document CHEMBL1201862, “PubChem BioAssay data set” (2004).

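Step 1: Grow cells in 96-well plates. Step 2: Expose to compound for 48 hours at 5 concentrations. Step 3: Interpolate endpoints linearly; if unreached, use highest concentration. GI50: concentration for 50% inhibition of growth.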 Activity calls are given as the source filed them. Rule as the data show it: active = GI50 up to about 1.1 µM and inactive = higher. Where only a bound is given, the exact number is not on record here.

Some test systems named below: SK-MEL-2; CAKI-1; HCC 2998; RXF 393; UACC-62; MCF7; OVCAR-4; A549; COLO 205; SF-295; HL-60; ACHN; NCI-H23; K562; MDA-MB-231; SF-268; OVCAR-5; SK-MEL-28; SR; RPMI-8226.
Holding throughout (assay): DTP human tumour cell line panel, 48 h

With `O=C(Nc1cccc2ccccc12)c1ccccc1`, the GI50 in the experiment with SK-MEL-2 was 91.2 µM (inactive); in the experiment on CAKI-1, 99.1 µM (inactive); with HCC 2998, > 100 µM (inactive); in the experiment on RXF 393 it was 26.7 µM (inactive); in the experiment with UACC-62, 86.7 µM (inactive); in the experiment with MCF7 it was 8.89 µM (inactive). For the same compound, the GI50 was 24.5 µM (inactive) in the experiment on OVCAR-4; > 100 µM (inactive) in the experiment on A549; 97.7 µM (inactive) with COLO 205; > 100 µM (inactive) in the experiment with SF-295; > 100 µM (inactive) in the experiment with HL-60; > 100 µM (inactive) with ACHN. Also, the GI50 with NCI-H23 is > 100 µM (inactive); in the experiment on K562, 76.6 µM (inactive); with MDA-MB-231, > 100 µM (inactive); in the experiment with SF-268 it was > 100 µM (inactive); in the experiment on OVCAR-5 it was > 100 µM (inactive); in the experiment on SK-MEL-28, > 100 µM (inactive).

As to `CCOC(=O)c1c(CN2CCNCC2)nc2ccc(Cl)cc2c1-c1ccccc1`, the GI50 is 1.79 µM (inactive) in the experiment on SK-MEL-2; 2.47 µM (inactive) with CAKI-1; 1.6 µM (inactive) in the experiment with HCC 2998; 2.58 µM (inactive) in the experiment on RXF 393; 1.77 µM (inactive) in the experiment on UACC-62; 11 µM (inactive) in the experiment on MCF7. The GI50 in the experiment on OVCAR-4 was 3.72 µM (inactive); with A549, 5.31 µM (inactive); in the experiment on COLO 205, 2.03 µM (inactive); with SF-295, 2.24 µM (inactive); in the experiment with SR it was 1.78 µM (inactive); in the experiment on HL-60, 1.98 µM (inactive). Also, the GI50 was 5.45 µM (inactive) with ACHN; 10.4 µM (inactive) in the experiment with NCI-H23; 2.14 µM (inactive) with K562; 2.19 µM (inactive) in the experiment with RPMI-8226; 5.6 µM (inactive) in the experiment with SF-268; 19.5 µM (inactive) in the experiment on OVCAR-5. Further, the GI50 in the experiment with SK-MEL-28 was 3.83 µM (inactive).

For the compound `OCC(O)C1OC2CC1Nc1ccccc1N2` (configuration not stated), the GI50 in the experiment with SK-MEL-2, with CAKI-1, in the experiment with HCC 2998, in the experiment with UACC-62, with A549 and in the experiment on COLO 205 was > 100 µM (inactive) in each case. Also, the GI50 in the experiment with SF-295 is > 100 µM (inactive); in the experiment on SR it was > 10 µM (inactive); with HL-60, > 100 µM (inactive); in the experiment on ACHN, > 100 µM (inactive); with NCI-H23 it was > 100 µM (inactive); in the experiment on K562, > 100 µM (inactive). Also, the GI50 is > 100 µM (inactive) in the experiment with RPMI-8226; > 100 µM (inactive) in the experiment on MDA-MB-231; > 100 µM (inactive) in the experiment on SF-268; > 10 µM (inactive) in the experiment with OVCAR-5; > 100 µM (inactive) with SK-MEL-28.

As to `CCOP(=O)(OCC)c1ccc(=O)[nH]c1-c1cccs1`, the GI50 in the experiment with SK-MEL-2, with CAKI-1, in the experiment with HCC 2998, with RXF 393, in the experiment on UACC-62 and in the experiment on MCF7 was > 100 µM (inactive) in each case. Further, the GI50 in the experiment with OVCAR-4, in the experiment on A549, in the experiment on COLO 205, in the experiment with SF-295, in the experiment on SR and in the experiment with ACHN was > 100 µM (inactive) in each case. In addition, the GI50 in the experiment with NCI-H23, with K562, with RPMI-8226, with SF-268, in the experiment on OVCAR-5 and with SK-MEL-28 was > 100 µM (inactive) in each case.

On to `c1ccc2c(c1)N=C(c1cccc3ccccc13)CC(c1cccc3ccccc13)S2` (configuration not stated), for which the GI50 with SK-MEL-2 was 14.9 µM (inactive); in the experiment with CAKI-1 it was 4.43 µM (inactive); in the experiment with HCC 2998 it was 4.21 µM (inactive); in the experiment on RXF 393 it was 3.48 µM (inactive); in the experiment on UACC-62, 5.21 µM (inactive); in the experiment on OVCAR-4, 3.68 µM (inactive). Also, the GI50 with A549 is 9.12 µM (inactive); in the experiment on COLO 205, 12.9 µM (inactive); in the experiment on SF-295, 9.77 µM (inactive); with SR, 2.07 µM (inactive); in the experiment with HL-60 it was 0.467 µM (active); with ACHN, 10.2 µM (inactive). Further, the GI50 in the experiment on NCI-H23 is 3.57 µM (inactive); in the experiment with K562, 2.49 µM (inactive); in the experiment on RPMI-8226 it was 1.9 µM (inactive); with SF-268, 4.42 µM (inactive); with OVCAR-5, 6.9 µM (inactive); in the experiment on SK-MEL-28 it was 7.36 µM (inactive).

In the case of `CN(C)C1(N(C)C)Oc2c(c(=O)n(C)c(=O)n2C)C(c2ccc(Br)cc2)C1(F)F` (configuration not stated), the GI50 with SK-MEL-2, with CAKI-1, with HCC 2998, in the experiment on RXF 393, in the experiment with UACC-62 and with MCF7 was > 100 µM (inactive) in each case. Moreover, the GI50 in the experiment on OVCAR-4, in the experiment on A549, in the experiment on COLO 205, with SF-295, in the experiment on ACHN and with NCI-H23 was > 100 µM (inactive) in each case. For the same compound, the GI50 in the experiment with RPMI-8226, in the experiment on MDA-MB-231, in the experiment with SF-268, with OVCAR-5 and in the experiment with SK-MEL-28 was > 100 µM (inactive) throughout.

Regarding `Cn1nc2ccc3nccc(N4CCN(CCO)CC4)c3c2n1`, the GI50 in the experiment with SK-MEL-2, in the experiment on HCC 2998, in the experiment on RXF 393, with UACC-62, with MCF7 and with OVCAR-4 was > 100 µM (inactive) throughout. The GI50 was > 100 µM (inactive) in the experiment with A549; > 100 µM (inactive) in the experiment on COLO 205; > 100 µM (inactive) in the experiment with SF-295; > 100 µM (inactive) with ACHN; > 100 µM (inactive) with NCI-H23; 58.6 µM (inactive) in the experiment on K562. In addition, the GI50 with MDA-MB-231, in the experiment with SF-268, in the experiment on OVCAR-5 and in the experiment on SK-MEL-28 was > 100 µM (inactive) each time.

For `CCOC1=C2N=C(C(CC)c3ccc(F)cc3)N=C2C(=O)c2ccccc21` (configuration not stated), the GI50 in the experiment on SK-MEL-2 is 18.7 µM (inactive); with CAKI-1 it was 22 µM (inactive); in the experiment with HCC 2998, 29.9 µM (inactive); with RXF 393, 11.6 µM (inactive); in the experiment with UACC-62, 10.9 µM (inactive); in the experiment on OVCAR-4, 19.7 µM (inactive). For the same compound, the GI50 with A549 was 22.1 µM (inactive); in the experiment with COLO 205, 22.3 µM (inactive); in the experiment with SF-295, 21 µM (inactive); in the experiment on SR it was 21.3 µM (inactive); in the experiment with HL-60, 35.3 µM (inactive); with ACHN, 19.1 µM (inactive). Further, the GI50 in the experiment with NCI-H23 is 25.3 µM (inactive); in the experiment on K562, 20.6 µM (inactive); in the experiment on RPMI-8226 it was 23.8 µM (inactive); in the experiment with SF-268 it was 19.7 µM (inactive); in the experiment with OVCAR-5, 26.6 µM (inactive); with SK-MEL-28, 36.5 µM (inactive).

In the case of `C=C1CC(C)(c2cccc(Nc3nc4ccccc4c4occc34)c2)OC1=O` (configuration not stated), the GI50 in the experiment on CAKI-1 is 3.98 µM (inactive); in the experiment with HCC 2998, 2.43 µM (inactive); with RXF 393, 2.36 µM (inactive); in the experiment with UACC-62, 0.65 µM (active); with MCF7, 3.71 µM (inactive); with OVCAR-4, 7.89 µM (inactive). The GI50 in the experiment with A549 is 3.92 µM (inactive); in the experiment with COLO 205, 4.38 µM (inactive); in the experiment with SF-295, 16.8 µM (inactive); in the experiment with HL-60, 2.27 µM (inactive); in the experiment with ACHN, 4.8 µM (inactive); with RPMI-8226 it was 2.03 µM (inactive). The GI50 is 5.11 µM (inactive) in the experiment with MDA-MB-231, 10.5 µM (inactive) with SF-268, 14.3 µM (inactive) in the experiment on OVCAR-5 and 13.9 µM (inactive) in the experiment on SK-MEL-28.

For `O=[N+]([O-])c1ccc2nc3ccccc3cc2c1`, the GI50 was 4.73 µM (inactive) with SK-MEL-2; 0.0149 µM (active) in the experiment with CAKI-1; 1.63 µM (inactive) with HCC 2998; 13.8 µM (inactive) in the experiment on RXF 393; 1.19 µM (inactive) in the experiment with UACC-62; 2.39 µM (inactive) in the experiment with MCF7. Also, the GI50 in the experiment with OVCAR-4 is 2.48 µM (inactive); with A549, 2.5 µM (inactive); in the experiment with COLO 205, 3.56 µM (inactive); in the experiment with ACHN it was 3.04 µM (inactive); with NCI-H23, 2.28 µM (inactive); with K562, 0.0782 µM (active). Further, the GI50 in the experiment with MDA-MB-231 is 2.55 µM (inactive); in the experiment with SF-268 it was 6.44 µM (inactive); with OVCAR-5, 2.48 µM (inactive); with SK-MEL-28, 2.57 µM (inactive).

For `CC(NC(=O)OCc1ccccc1)NC(=O)C(CC(=O)OC(C)(C)C)NC(=O)OC(C)(C)C` (configuration not stated), the GI50 in the experiment on SK-MEL-2, in the experiment with CAKI-1, with RXF 393, with UACC-62, in the experiment with MCF7 and in the experiment on OVCAR-4 was > 100 µM (inactive) throughout. In addition, the GI50 with A549, with COLO 205, in the experiment on SF-295, in the experiment on ACHN, with NCI-H23 and in the experiment with K562 was > 100 µM (inactive) throughout. Moreover, the GI50 with RPMI-8226 was > 100 µM (inactive); in the experiment on MDA-MB-231 it was > 100 µM (inactive); in the experiment on SF-268, 98.4 µM (inactive); with OVCAR-5, > 100 µM (inactive); with SK-MEL-28 it was > 100 µM (inactive).

Regarding `C/C(=N\NC(=O)c1ccncc1)c1ccccc1F`, the GI50 in the experiment on SK-MEL-2, with CAKI-1, with HCC 2998, in the experiment with RXF 393, in the experiment on MCF7 and with A549 was > 10 µM (inactive) in each case. The GI50 in the experiment on COLO 205, with SF-295, in the experiment on SR, in the experiment with HL-60, in the experiment with ACHN and in the experiment with NCI-H23 was > 10 µM (inactive) in each case. Besides, the GI50 with K562, in the experiment with RPMI-8226, with SF-268, in the experiment on OVCAR-5 and with SK-MEL-28 was > 10 µM (inactive) each time.
